Assay results from patent US20210179578A1, “OX1 ANTAGONISTS” (Heptares Therapeutics Limited, priority 2017, published 2021).
Where two headings read alike, the source gives them in different places.

Assays:
human OX1 receptor = target: T1, human OX1 receptor (Homo sapiens, UniProt O43613); test: IPone accumulation assay, CHO cells expressing OX1 (antagonism of orexin A); assay type: cell-based; details: CHO human OX1, orexin A EC80 challenge (~20 nM)
T1 sequence (O43613 1-425): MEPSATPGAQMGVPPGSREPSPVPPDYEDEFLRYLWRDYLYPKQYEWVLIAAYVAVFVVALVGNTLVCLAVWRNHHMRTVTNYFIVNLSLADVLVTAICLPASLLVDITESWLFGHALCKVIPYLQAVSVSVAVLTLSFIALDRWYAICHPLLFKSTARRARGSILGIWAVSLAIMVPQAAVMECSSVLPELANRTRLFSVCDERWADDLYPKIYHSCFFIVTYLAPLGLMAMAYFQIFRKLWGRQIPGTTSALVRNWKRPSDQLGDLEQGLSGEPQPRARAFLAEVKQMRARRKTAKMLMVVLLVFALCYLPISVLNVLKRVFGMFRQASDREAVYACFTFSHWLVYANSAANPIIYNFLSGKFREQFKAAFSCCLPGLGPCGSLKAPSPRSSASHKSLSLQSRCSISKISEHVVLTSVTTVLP
Experimental: Generation of CHO stable cell lines expressing the human OX1R and OX2R. Stable cell lines for the human OX1R and OX2R receptors were generated through the transfection of CHO cells using the transfection reagent Genejuice (Novagen number 70967) and cDNA coding for either the human OX1R or OX2R. Cells were cultured in Sigma Nutrient Mixture F-12 Ham media (catalog number N6658) supplemented with 10% heat-inactivated FBS. Forty-eight hours after transfection, cells were harvested and placed under geneticin selection by culturing in Sigma Nutrient Mixture F-12 Ham media supplemented with 10% heat-inactivated FBS and geneticin (ThermoFisher Catalog number: 10131035). Selection of the final stable clone for each receptor was made on the basis of receptor expression, assay signal to noise and robustness though increasing passage. Selected clones for the human OX1R and OX2R were then frozen down into liquid nitrogen using Cell Freezing Medium-DMSO (Sigma-Aldrich catalog number: C6164). IPone accumulation assay. A CHO cell line stably expressing either human OX1 or OX2 receptor was used with the IPone HTRF assay kit (CisBio: Part #62[…]) to measure receptor activation. The assay was optimised to measure the ability (potency; fpKb) of antagonists to reduce agonist (orexin A)-induced inositol phosphate turnover. Briefly, cells were plated onto half area 96-well white walled plates at a density of 12,500 cells/well. Sixteen hours post-plating cell growth media was replaced with antagonist concentration-response curve diluted in stimulation buffer (supplied with the kit). Cells were incubated in a humidified incubator (37° C.) for 30 min before an EC80 challenge concentration ( 20 nM (OX1) and 40 nM (OX2)) of orexin A (Tocris catalogue number 1455). After 30 min stimulation in a humidified incubator (37° C.) the assay was terminated by the addition of detection mixture as per manufacturer's instructions. The concentration of compound which reduced orexin-A stimulated turnover of inositol phosphates by 50% (IC50) was calculated by fitting to a four parameter sigmoidal dose response curve. The IC50 values were converted to fpKB values using the orexin A pEC50 value estimated on each plate as well as the challenge concentration interpolated from the orexin A control curve.

human OX2 receptor = target: T2, human OX2 receptor (Homo sapiens, UniProt O43614); test: IPone accumulation assay, CHO cells expressing OX2 (antagonism of orexin A); assay type: cell-based; details: CHO human OX2, orexin A EC80 challenge (40 nM), read-out: fpKb average OX2 (converted)
T2 sequence (O43614 1-444): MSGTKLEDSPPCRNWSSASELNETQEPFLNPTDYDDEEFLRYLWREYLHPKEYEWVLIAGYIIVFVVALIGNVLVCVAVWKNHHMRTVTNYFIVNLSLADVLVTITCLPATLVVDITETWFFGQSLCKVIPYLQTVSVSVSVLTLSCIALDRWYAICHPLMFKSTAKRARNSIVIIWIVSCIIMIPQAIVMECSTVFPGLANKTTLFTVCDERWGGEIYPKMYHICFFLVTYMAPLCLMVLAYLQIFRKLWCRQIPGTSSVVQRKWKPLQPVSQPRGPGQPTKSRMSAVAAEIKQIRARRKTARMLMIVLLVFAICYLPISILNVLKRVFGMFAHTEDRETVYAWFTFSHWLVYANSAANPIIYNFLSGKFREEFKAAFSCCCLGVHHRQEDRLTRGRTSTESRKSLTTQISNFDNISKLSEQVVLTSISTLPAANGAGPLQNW
Experimental: Generation of CHO stable cell lines expressing the human OX1R and OX2R. Stable cell lines for the human OX1R and OX2R receptors were generated through the transfection of CHO cells using the transfection reagent Genejuice (Novagen number 70967) and cDNA coding for either the human OX1R or OX2R. Cells were cultured in Sigma Nutrient Mixture F-12 Ham media (catalog number N6658) supplemented with 10% heat-inactivated FBS. Forty-eight hours after transfection, cells were harvested and placed under geneticin selection by culturing in Sigma Nutrient Mixture F-12 Ham media supplemented with 10% heat-inactivated FBS and geneticin (ThermoFisher Catalog number: 10131035). Selection of the final stable clone for each receptor was made on the basis of receptor expression, assay signal to noise and robustness though increasing passage. Selected clones for the human OX1R and OX2R were then frozen down into liquid nitrogen using Cell Freezing Medium-DMSO (Sigma-Aldrich catalog number: C6164).
IPone accumulation assay. A CHO cell line stably expressing either human OX1 or OX2 receptor was used with the IPone HTRF assay kit (CisBio: Part #62IPAPEJ) to measure receptor activation. The assay was optimised to measure the ability (potency; fpKb) of antagonists to reduce agonist (orexin A)-induced inositol phosphate turnover. Briefly, cells were plated onto half area 96-well white walled plates at a density of 12,500 cells/well. Sixteen hours post-plating cell growth media was replaced with antagonist concentration-response curve diluted in stimulation buffer (supplied with the kit). Cells were incubated in a humidified incubator (37° C.) for 30 min before an EC80 challenge concentration (˜20 nM (OX1) and 40 nM (OX2)) of orexin A (Tocris catalogue number 1455). After 30 min stimulation in a humidified incubator (37° C.) the assay was terminated by the addition of detection mixture as per manufacturer's instructions. The concentration of compound which reduced orexin-A stimulated turnover of inositol phosphates by 50% (IC50) was calculated by fitting to a four parameter sigmoidal dose response curve. The IC50 values were converted to fpKB values using the orexin A pEC50 value estimated on each plate as well as the challenge concentration interpolated from the orexin A control curve.

[1] = IPone accumulation, read-out: fpKb average OX1 (converted)

Kb (human OX2 receptor) [nM]	Kb (human OX1 receptor; [1]) [nM]	SMILES	Kb (human OX1 receptor; fpKb average OX1, IPone accumulation) [nM]
> 794	79.4	COc1ncc(N2CCc3c(F)cccc3N(Cc3c(F)cc(Br)cc3F)C2=O)cc1S(C)(=O)=O [Example 14, 1-(4-bromo-2,6-difluorobenzyl)-6-fluoro-3-[6-methoxy-5-(methylsulfonyl)pyridin-3-yl]-1,3,4,5-tetrahydro-2H-1,3-benzodiazepin-2-one]	
> 1580	10	COc1ncc(C2CCc3c(F)cccc3N(Cc3c(F)cc(Br)cc3F)C2=O)cc1S(C)(=O)=O (single isomer, unassigned) [Example 21, 1-(4-bromo-2,6-difluorobenzyl)-6-fluoro-3-[6-methoxy-5-(methylsulfonyl)pyridin-3-yl]-1,3,4,5-tetrahydro-2H-1-benzazepin-2-one]	
> 316	20	Cc1cc(C)c(S(C)(=O)=O)cc1N1CCc2c(F)cccc2N(Cc2c(F)cc(Br)cc2F)C1=O [Example 31, 1-(4-bromo-2,6-difluorobenzyl)-3-[2,4-dimethyl-5-(methylsulfonyl)phenyl]-6-fluoro-1,3,4,5-tetrahydro-2H-1,3-benzodiazepin-2-one]	
> 2510	10	COc1ncc(N2CCc3c(F)cccc3N(Cc3c(C)cc(Br)cc3F)C2=O)cc1S(C)(=O)=O [Example 17, 1-(4-bromo-2-fluoro-6-methylbenzyl)-6-fluoro-3-[6-methoxy-5-(methylsulfonyl)pyridin-3-yl]-1,3,4,5-tetrahydro-2H-1,3-benzodiazepin-2-one]	
> 3160	31.6	COc1ncc(C2CCc3c(F)cccc3N(Cc3c(F)cc(Br)cc3F)C2=O)cc1S(C)(=O)=O (racemic) [Example 19, 1-(4-bromo-2,6-difluorobenzyl)-6-fluoro-3-[6-methoxy-5-(methylsulfonyl)pyridin-3-yl]-1,3,4,5-tetrahydro-2H-1-benzazepin-2-one]	
> 2510	63.1	Cc1ncc(C2CCc3c(F)cccc3N(Cc3c(F)cc(Br)cc3F)C2=O)cc1C(C)(F)F (single isomer, unassigned) [Example 35, 1-(4-bromo-2,6-difluorobenzyl)-3-[5-(1,1-difluoroethyl)-6-methylpyridin-3-yl]-6-fluoro-1,3,4,5-tetrahydro-2H-1-benzazepin-2-one]	

More lines, now with the values behind:

SMILES	Kb (human OX2 receptor) [nM]	Kb (human OX1 receptor; [1]) [nM]	Kb (human OX1 receptor; fpKb average OX1, IPone accumulation) [nM]
CSc1cc(N2CCc3c(F)cccc3N(Cc3c(F)cc(Br)cc3F)C2=O)ccc1C [Example 26, 1-(4-bromo-2,6-difluorobenzyl)-6-fluoro-3-[4-methyl-3-(methylsulfanyl)phenyl]-1,3,4,5-tetrahydro-2H-1,3-benzodiazepin-2-one]	> 794		50.1
COc1ccc(CN2C(=O)N(c3cnc(OC)c(C(C)(F)F)c3)CCc3c(F)cccc32)c(F)c1 [Example 4, 3-[5-(1,1-difluoroethyl)-6-methoxypyridin-3-yl]-6-fluoro-1-(2-fluoro-4-methoxybenzyl)-1,3,4,5-tetrahydro-2H-1,3-benzodiazepin-2-one]	> 3980	15.8	
COc1ncc(N2CCc3c(F)cccc3N(Cc3c(F)cc(Cl)cc3F)C2=O)cc1C(C)(F)F [Example 9, 1-(4-chloro-2,6-difluorobenzyl)-3-[5-(1,1-difluoroethyl)-6-methoxypyridin-3-yl]-6-fluoro-1,3,4,5-tetrahydro-2H-1,3-benzodiazepin-2-one]	> 3160	25.1	
[2H]C([2H])([2H])Oc1cc(F)c(CN2C(=O)N(c3cnc(OC)c(C(C)(F)F)c3)CCc3c(F)cccc32)c(F)c1 [Example 6, 3-[5-(1,1-difluoroethyl)-6-methoxypyridin-3-yl]-1-{2,6-difluoro-4-[(^2H3)methyloxy]benzyl}-6-fluoro-1,3,4,5-tetrahydro-2H-1,3-benzodiazepin-2-one]	398	10	
CCCc1cc(F)c(CN2C(=O)N(c3cnc(C)c(C(C)(F)F)c3)CCc3c(F)cccc32)c(F)c1 [Example 34, 3-[5-(1,1-difluoroethyl)-6-methylpyridin-3-yl]-1-(2,6-difluoro-4-propylbenzyl)-6-fluoro-1,3,4,5-tetrahydro-2H-1,3-benzodiazepin-2-one]	> 2510	79.4	
